“Also recorded” adds a separate entry of the source.
Key:
NFKB [1] = test: NFKB reporter activity in THP1-Dual monocytes co-cultured with treated A20 cells; format: cell-based, human; details: for NFKB signaling/activity in THP1 monocytes: A20 cells treated 24 hours, then co-culture with THP1-Dual cells 24 hours, versus DMSO
Description: (§1) A20 B-cell leukemia cells were treated with either control (DMSO) or various doses of RSL3, for 24 hours prior to co-culture with THP1-Dual cells for an additional 24 hours. RSL3 was purchased from Selleckchem (Houston, Tex.) and dissolved in DMSO. Subsequently, the THP1 supernatants were assessed for NFKB or IRF reporter activity.
(§2) A20 cells were acquired from ATCC and THP1-Dual cells acquired from InvivoGen (San Diego, Calif.). Both cell types were cultured in 96-well plates for the duration of the assay. 50,000 A20 cells were plated 24 hours prior to dosing with RSL3, with a final DMSO concentration of 0.5%. 24 hours post-treatment, THP1-Dual cells (25,000 cells/well) were added to the A20 cells. 24 hours later, 30 μl of supernatant was mixed with either 200 μl QuantiBlue (InvivoGen, San Diego, Calif.) or 50 μl QuantiLuc and absorbance or luminescence was recorded on a Molecular Devices plate reader.
A20 lymphoma cells were treated with various doses (e.g. 0.002, 0.005, 0.014, 0.041, 0.123, 0.370, 1.111, 3.333 and 10 μM) of a GPX4 inhibitor (RSL3, ML162 or ML210) in the presence or absence of 1 μM Ferrostatin-1 for 24 hours. ML162 was purchased from Cayman Chemical Company Inc and resuspended in DMSO. ML210 was purchased from Sigma-Aldrich and resuspended in DMSO. A20 lymphoma cells were also treated with DMSO as a negative control. After treatment with DMSO or a GPX4 inhibitor for 24 hours, the A20 lymphoma cells were co-cultured with THP1-Dual cells for an additional 24 hours. Subsequently, the THP1 supernatant was assessed for NFKB reporter activity. A20 cells were acquired from ATCC and THP1-Dual cells were acquired from InvivoGen (San Diego, Calif.). Both cell types were cultured in 96-well plates for the duration of the assay.

A20 lymphoma cells = test: Viability of A20 B-cell leukemia / lymphoma cells after treatment; format: cell-based; details: for viability of A20 cells: various doses, 24 hours treatment
[2] = tested on: Caki-1 renal cell carcinoma cells; test: Viability of Caki-1 renal cell carcinoma cells after treatment; format: cell-based; details: for viability of Caki-1 cells: various doses, 24 hours treatment
Description: Caki-1 renal carcinoma cells were treated with either control (DMSO) or various doses (e.g. 0.002, 0.005, 0.014, 0.041, 0.123, 0.370, 1.111, 3.333 and 10 μM) of a GPX4 inhibitor (RSL3 or ML162) in the presence or absence of 1 μM Ferrostatin for 24 hours prior to co-culture with THP1-Dual cells for an additional 24 hours. […] Caki-1 cells were acquired from ATCC and THP1-Dual cells acquired from InvivoGen (San Diego, Calif.). Both cell types were cultured in 96-well plates for the duration of the assay.

NFKB [3] = test: NFKB reporter activity in THP1-Dual monocytes co-cultured with treated Caki-1 cells; format: cell-based, human; details: for NFKB signaling/activity in THP1 monocytes: Caki-1 cells treated 24 hours, then co-culture with THP1-Dual cells 24 hours, versus DMSO
Description: as §1, with “Caki-1 renal cell carcinoma” for “A20 B-cell leukemia”, “Erastin,” for “RSL3,”, “Erastin” for “RSL3”
as §2, with “Caki-1” for “A20”, “7,500 Caki-1” for “50,000 A20”, “Erastin,” for “RSL3,”, “(InvivoGen)” for “(InvivoGen, San Diego, Calif.)”
as §1, with “Caki-1 renal cell carcinoma” for “A20 B-cell leukemia”, “Selleckchem” for “Selleckchem (Houston, Tex.)”
as §2, with “Caki-1” for “A20”, “7,500 Caki-1” for “50,000 A20”
Caki-1 renal carcinoma cells were treated with either control (DMSO) or various doses (e.g. 0.002, 0.005, 0.014, 0.041, 0.123, 0.370, 1.111, 3.333 and 10 μM) of a GPX4 inhibitor (RSL3 or ML162) in the presence or absence of 1 μM Ferrostatin for 24 hours prior to co-culture with THP1-Dual cells for an additional 24 hours. Subsequently, the THP1 supernatant was assessed for NFKB reporter activity. Caki-1 cells were acquired from ATCC and THP1-Dual cells acquired from InvivoGen (San Diego, Calif.). Both cell types were cultured in 96-well plates for the duration of the assay.

NFKB [4] = test: NFKB reporter activity in THP1-Dual monocytes co-cultured with treated HT1080 cells; format: cell-based, human; details: HT1080 cells treated 24 hours, then co-culture with THP1-Dual cells 24 hours; versus DMSO
Description: HT1080 fibrosarcoma cells were treated with either control (DMSO) or various doses of Erastin, piperazine erastin (PE), or imidazole ketoerastin (IKE) for 24 hours prior to co-culture with THP1-Dual cells for an additional 24 hours. Erastin was purchased from Selleckchem (Houston, Tex.) and dissolved in DMSO. Subsequently, the THP1 supernatants were assessed for nuclear factor kappa-light-chain-enhancer of activated B cells (NFKB) or interferon regulatory factor (IRF) reporter activity.
HT1080 cells were acquired from ATCC and THP1-Dual cells were acquired from InvivoGen (San Diego, Calif.). THP1-Dual cells are human monocyte cells that induce reporter proteins upon activation of either NFKB or IRF pathways. Both cell types were cultured in 96-well plates for the duration of the assay. HT1080 cells were cultured in DMEM with 10% FBS, and THP1-Dual cells were cultured in RPMI with 10% FBS. 7,500 HT1080 cells were plated 24 hours prior to dosing with Erastin, PE, or IKE, with a final DMSO concentration of 0.5%. 24 hours post-treatment, THP1-Dual cells (25,000 cells/well) were added to the HT1080 cells. 24 hours later, 30 μl of supernatant was mixed with either 200 μl QuantiBlue (InvivoGen, San Diego, Calif.) (for NFKB reporter activity) or 50 μl QuantiLuc (for IRF reporter activity) and absorbance or luminescence was recorded on a Molecular Devices plate reader.
HT1080 fibrosarcoma cells were treated with various doses of Erastin (e.g. […], 0.16, 0.31, 0.63, 1.25, 2.5, 5, 10 or 20 μM) alone or in combination with a ferroptosis inhibitor (1 μM Ferrostatin-1, 1 μM Liproxstatin-1, 100 μM Trolox, 25 μM β-Mercaptoethanol or 100 μM Deferoxamine) for 24 hours prior to co-culture with THP1-Dual cells for an additional 24 hours. Ferrostatin-1 and Liproxstatin-1 were purchased from Selleckchem (Houston, Tex.) and dissolved in DMSO. Trolox was purchased from Cayman Chemical Company Inc and resuspended in DMSO. […] Subsequently, the THP1 supernatant was assessed for NFKB activity. […]

[5] = tested on: HT1080 fibrosarcoma cells; test: Viability of HT1080 fibrosarcoma cells after treatment; format: cell-based; details: various doses, 24 hours treatment
NFKB [6] = test: NFKB reporter activity in THP1-Dual monocytes co-cultured with treated PANC1 cells; format: cell-based, human; details: PANC1 cells treated 24 hours, then co-culture with THP1-Dual cells 24 hours; versus DMSO
Description: as §1, with “PANC1 pancreatic cancer” for “A20 B-cell leukemia”, “Erastin,” for “RSL3,”, “Erastin” for “RSL3”
as §2, with “PANC1 cells were” for “A20 cells were”, “THP1-Dual cells were acquired from” for “THP1-Dual cells acquired from”, “the assay. 7,500 PANC-1 cells were” for “the assay. 50,000 A20 cells were”, “dosing with Erastin, with a” for “dosing with RSL3, with a”, “to the PANC-1 cells. 24” for “to the A20 cells. 24”

[7] = tested on: cells overexpressing oncogenic HRAS; details: engineered human fibroblast cell lines; Dolma et al., 2003; cited from earlier work
[8] = tested on: PANC1 pancreatic cancer cells; test: Viability of PANC1 pancreatic cancer cells after treatment; format: cell-based; details: various doses, 24 hours treatment

Structure (SMILES) | NFKB signaling/activity in THP1 monocytes (NFKB [1]) | viability of A20 cells (A20 lymphoma cells) | viability of Caki-1 cells [2] | NFKB signaling/activity in THP1 monocytes (NFKB [3]) | NFKB signaling/activity in THP1 monocytes (NFKB [4]) | viability of HT1080 cells [5] | other results
Cc1onc(C(=O)N2CCN(C(c3ccc(Cl)cc3)c3ccc(Cl)cc3)CC2)c1[N+](=O)[O-] [ML210] | increased NFKB activity in THP1 cells in a dose dependent manner | decreased viability of the cells in a dose dependent manner | – | – | – | – | –
CCOC(=O)c1ccc(NC2CCCCC2)c(N)c1 [Ferrostatin-1] | – | – | – | – | – | – | effect on GPX4 inhibitor-decreased viability of Caki-1 renal carcinoma cells ([2]; 1 μM Ferrostatin-1 together with RSL3 or ML162, 24 hours): attenuated; effect on GPX4 inhibitor-increased NFKB activity in THP1 cells (NFKB [1]; A20 cells, 1 μM Ferrostatin-1 together with RSL3, ML162 or ML210, then THP1-Dual co-culture 24 hours): attenuated; effect on GPX4 inhibitor-increased NFKB activity in THP1 cells (NFKB [3]; Caki-1 cells, 1 μM Ferrostatin-1 together with RSL3 or ML162, then THP1-Dual co-culture 24 hours): attenuated; effect on GPX4 inhibitor-decreased viability of A20 lymphoma cells (A20 lymphoma cells; 1 μM Ferrostatin-1 together with RSL3, ML162 or ML210, 24 hours): attenuated
COc1ccc(N(C(=O)CCl)C(C(=O)NCCc2ccccc2)c2cccs2)cc1Cl (stereo not drawn) [ML162] | increased NFKB activity in THP1 cells in a dose dependent manner | decreased viability of the cells in a dose dependent manner | decreased viability of the cells in a dose dependent manner | increased NFKB activity in THP1 cells in a dose dependent manner | – | – | –
CC(C)Oc1ccc(C(=O)Cn2ccnc2)cc1-n1c(CN2CCN(C(=O)COc3ccc(Cl)cc3)CC2)nc2ccccc2c1=O [IKE, imidazole ketoerastin] | – | – | – | – | elicited NFKB signaling | negatively affected the viability | –
CCOc1ccccc1-n1c(C(C)N2CCN(C(=O)COc3ccc(Cl)cc3)CC2)nc2ccccc2c1=O (stereo not drawn) [Erastin, erastin] | – | – | negatively affected the viability | elicited NFKB signaling | elicited NFKB signaling; also recorded: increased NFKB activity in THP1 cells in a dose dependent manner | negatively affected the viability; also recorded: decreased viability of the cells in a dose dependent manner | NFKB signaling in THP1 monocytes (NFKB [6]): elicited NFKB signaling; lethality in cells overexpressing oncogenic HRAS [7]: induce preferential lethality; viability of PANC1 cells [8]: negatively affected the viability
CC(C)Oc1ccc(CN2CCNCC2)cc1-n1c(CN2CCN(C(=O)COc3ccc(Cl)cc3)CC2)nc2ccccc2c1=O [PE, piperazine erastin] | – | – | – | – | elicited NFKB signaling | negatively affected the viability | –

Reference: patent US20210251994A1, “INCREASING IMMUNE ACTIVITY THROUGH MODULATION OF POSTCELLULAR SIGNALING FACTORS” (FLAGSHIP PIONEERING INNOVATIONS V, INC., priority 2018, published 2021)
